Measurements from US10750743B2, “Pyridazinone herbicides” (E.I. DU PONT DE NEMOURS AND COMPANY, priority 2015, dated 2020).

Tests used:
Type in all cases: in vivo
[1] = test system: barnyardgrass (Echinochloa crus-galli); assay: Test A preemergence, directed soil spray, visual injury rating; settings: Echinochloa crus-galli, pre-emergence, 240 h, 0 is no effect, 100 is complete control, read-out: Plant response rating (0 to 100 scale), Barnyardgrass; for pest or weed control at 125 g/ha: 125 g ai/ha
Outline: (§1)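 Seeds sown in a loam soil–sand blend received a directed preemergence soil spray of test chemical in a non-phytotoxic solvent mixture with surfactant. Postemergence plants were sprayed at 2 to 10 cm, one- to two-leaf stage. After approximately 10 d in greenhouse, injury was visually rated 0 (no effect) to 100 (complete control) against untreated controls.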

[2] = test system: foxtail, giant (giant foxtail, Setaria faberii); assay: as above; settings: Setaria faberi, pre-emergence, 240 h, 0 is no effect, 100 is complete control, read-out: Plant response rating (0 to 100 scale), Foxtail, Giant; for pest or weed control at 125 g/ha: 125 g ai/ha
Outline: as §1

kochia (Kochia scoparia) = assay: as above; settings: Bassia scoparia, pre-emergence, 240 h, 0 is no effect, 100 is complete control, read-out: Plant response rating (0 to 100 scale), Kochia; for pest or weed control at 125 g/ha: 125 g ai/ha
Outline: as §1

[3] = test system: pigweed (Amaranthus retroflexus); assay: as above; settings: Amaranthus retroflexus, pre-emergence, 240 h, 0 is no effect, 100 is complete control, read-out: Plant response rating (0 to 100 scale), Pigweed; for pest or weed control at 125 g/ha: 125 g ai/ha
Outline: as §1

[4] = test system: ragweed (common ragweed, Ambrosia elatior); assay: as above; settings: Ambrosia artemisiifolia, pre-emergence, 240 h, 0 is no effect, 100 is complete control, read-out: Plant response rating (0 to 100 scale), Ragweed; for pest or weed control at 125 g/ha: 125 g ai/ha
Outline: as §1

[5] = test system: ryegrass, It. (Italian ryegrass, Lolium multiflorum); assay: as above; settings: Lolium multiflorum, pre-emergence, 240 h, 0 is no effect, 100 is complete control, read-out: Plant response rating (0 to 100 scale), Ryegrass, It.; for pest or weed control at 125 g/ha: 125 g ai/ha
Outline: as §1

[6] = test system: barnyardgrass (Echinochloa crus-galli); assay: Test B flooded paddy test, visual rating; settings: Echinochloa crus-galli, 360 h; Flood, 250 g ai/ha, applied to paddy water, rated after 13 to 15 d; read-out: Barnyardgrass plant response rating (0 to 100 scale, 0 is no effect, 100 is complete control)
Outline: (§2)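 Plants at the 2-leaf stage were flooded to 3 cm above soil, and test compounds were applied directly into the paddy water, which was held at that depth throughout. After 13 to 15 d in a greenhouse, injury was rated visually against untreated controls on a 0–100 scale (0 no effect, 100 complete control).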

[7] = test system: ducksalad (Heteranthera limosa); assay: Test B flooded paddy test, visual rating; settings: Heteranthera limosa, 360 h; Flood, 250 g ai/ha, applied to paddy water, rated after 13 to 15 d; read-out: Ducksalad plant response rating (0 to 100 scale, 0 is no effect, 100 is complete control)
Outline: as §2

rice (Oryza sativa) = assay: Test B flooded paddy test, visual rating; settings: Oryza sativa, 360 h; Flood, 250 g ai/ha, applied to paddy water, rated after 13 to 15 d; read-out: Rice plant response rating (0 to 100 scale, 0 is no effect, 100 is complete control)
Outline: as §2

[8] = test system: sedge, umbrella (small-flower umbrella sedge, Cyperus difformis); assay: Test B flooded paddy test, visual rating; settings: Cyperus difformis, 360 h; Flood, 250 g ai/ha, applied to paddy water, rated after 13 to 15 d; read-out: Sedge, Umbrella plant response rating (0 to 100 scale, 0 is no effect, 100 is complete control)
Outline: as §2

[9] = test system: barnyardgrass (Echinochloa crus-galli); assay: Test A postemergence application, visual injury rating; settings: Echinochloa crus-galli, post-emergence, 240 h, 0 to 100 scale, 0 no effect, 100 complete control, read-out: Barnyardgrass plant response rating; for pest or weed control at 125 g/ha: 125 g ai/ha
Outline: as §1

[10] = test system: blackgrass (Alopecurus myosuroides); assay: as above; settings: Alopecurus myosuroides, post-emergence, 240 h, 0 to 100 scale, 0 no effect, 100 complete control, read-out: Blackgrass plant response rating; for pest or weed control at 125 g/ha: 125 g ai/ha
Outline: as §1

corn (Zea mays) = assay: as above; settings: for plant injury at 125 g/ha: 125 g ai/ha
Outline: as §1

[11] = test system: galium (catchweed bedstraw, Galium aparine); assay: as above; settings: for pest or weed control at 125 g/ha: 125 g ai/ha
Outline: as §1

[12] = test system: pigweed (Amaranthus retroflexus); assay: as above; settings: for pest or weed control at 125 g/ha: 125 g ai/ha
Outline: as §1

[13] = test system: ragweed (common ragweed, Ambrosia elatior); assay: as above; settings: for pest or weed control at 125 g/ha: 125 g ai/ha
Outline: as §1

[14] = test system: ryegrass, It. (Italian ryegrass, Lolium multiflorum); assay: as above; settings: for pest or weed control at 125 g/ha: 125 g ai/ha
Outline: as §1

[15] = test system: wheat (Triticum aestivum); assay: as above; settings: for plant injury at 125 g/ha: 125 g ai/ha
Outline: as §1

[16] = Zea mays, post-emergence, 240 h, 0 to 100 scale, 0 no effect, 100 complete control, read-out: Corn plant response rating
[17] = Galium, post-emergence, 240 h, 0 to 100 scale, 0 no effect, 100 complete control, read-out: Galium plant response rating
[18] = Amaranthus retroflexus, post-emergence, 240 h, 0 to 100 scale, 0 no effect, 100 complete control, read-out: Pigweed plant response rating
[19] = Ambrosia artemisiifolia, post-emergence, 240 h, 0 to 100 scale, 0 no effect, 100 complete control, read-out: Ragweed plant response rating
[20] = Lolium multiflorum, post-emergence, 240 h, 0 to 100 scale, 0 no effect, 100 complete control, read-out: Ryegrass, It. plant response rating
[21] = Triticum aestivum, post-emergence, 240 h, 0 to 100 scale, 0 no effect, 100 complete control, read-out: Wheat plant response rating
[22] = 31 g ai/ha, 0 is no effect, 100 is complete control

CCOC(=O)Oc1c(C)nn(C)c(=O)c1-c1c(C)ccc2sccc12 [Compound 30, 1,6-dihydro-1,3-dimethyl-5-(5-methylbenzo[b]thien-4-yl)-6-oxo-4-pyridazinyl ethyl carbonate]
pest or weed control at 125 g/ha [1]: 0%
pest or weed control at 500 g/ha ([1]; 500 g ai/ha): 90%
pest or weed control at 125 g/ha [2]: 0%
pest or weed control at 500 g/ha ([2]; 500 g ai/ha): 80%
pest or weed control at 125 g/ha (kochia (Kochia scoparia)): 10%
pest or weed control at 500 g/ha (kochia (Kochia scoparia); 500 g ai/ha): 80%
pest or weed control at 125 g/ha [3]: 90%
pest or weed control at 500 g/ha ([3]; 500 g ai/ha): 100%
pest or weed control at 125 g/ha [4]: 20%
pest or weed control at 500 g/ha ([4]; 500 g ai/ha): 90%
pest or weed control at 125 g/ha [5]: 90%
pest or weed control at 500 g/ha ([5]; 500 g ai/ha): 100%
pest or weed control at 250 g/ha [6]: 0%
pest or weed control at 250 g/ha [7]: 0%
plant injury at 250 g/ha (rice (Oryza sativa)): 0%
pest or weed control at 250 g/ha [8]: 0%
pest or weed control at 125 g/ha [9]: 10%
pest or weed control at 500 g/ha ([9]; 500 g ai/ha): 80%
pest or weed control at 125 g/ha [10]: 40%
pest or weed control at 500 g/ha ([10]; 500 g ai/ha): 90%
plant injury at 125 g/ha (corn (Zea mays); [16]): 20%
plant injury at 500 g/ha (corn (Zea mays); Zea mays, post-emergence, 240 h, 500 g ai/ha, 0 to 100 scale, 0 no effect, 100 complete control, read-out: Corn plant response rating): 40%
pest or weed control at 125 g/ha [11, 17]: 90%
pest or weed control at 500 g/ha ([11]; Galium, post-emergence, 240 h, 500 g ai/ha, 0 to 100 scale, 0 no effect, 100 complete control, read-out: Galium plant response rating): 100%
pest or weed control at 125 g/ha [12, 18]: 90%
pest or weed control at 500 g/ha ([12]; Amaranthus retroflexus, post-emergence, 240 h, 500 g ai/ha, 0 to 100 scale, 0 no effect, 100 complete control, read-out: Pigweed plant response rating): 90%
pest or weed control at 125 g/ha [13, 19]: 60%
pest or weed control at 500 g/ha ([13]; Ambrosia artemisiifolia, post-emergence, 240 h, 500 g ai/ha, 0 to 100 scale, 0 no effect, 100 complete control, read-out: Ragweed plant response rating): 90%
pest or weed control at 125 g/ha [14, 20]: 100%
pest or weed control at 500 g/ha ([14]; Lolium multiflorum, post-emergence, 240 h, 500 g ai/ha, 0 to 100 scale, 0 no effect, 100 complete control, read-out: Ryegrass, It. plant response rating): 100%
plant injury at 125 g/ha [15, 21]: 0%
plant injury at 500 g/ha ([15]; Triticum aestivum, post-emergence, 240 h, 500 g ai/ha, 0 to 100 scale, 0 no effect, 100 complete control, read-out: Wheat plant response rating): 30%

Cc1nn(C)c(=O)c(-c2ccc(F)c3ccoc23)c1O [Compound 68, 4-(4-fluoro-7-benzofuranyl)-5-hydroxy-2,6-dimethyl-3(2H)-pyridazinone]
pest or weed control at 31 g/ha ([1]; 31 g ai/ha): 0%
pest or weed control at 125 g/ha [1]: 20%
pest or weed control at 31 g/ha ([2]; 31 g ai/ha): 0%
pest or weed control at 125 g/ha [2]: 20%
pest or weed control at 31 g/ha (kochia (Kochia scoparia); 31 g ai/ha): 30%
pest or weed control at 125 g/ha (kochia (Kochia scoparia)): 60%
pest or weed control at 31 g/ha ([3]; 31 g ai/ha): 0%
pest or weed control at 125 g/ha [3]: 80%
pest or weed control at 31 g/ha ([4]; 31 g ai/ha): 30%
pest or weed control at 125 g/ha [4]: 50%
pest or weed control at 31 g/ha ([5]; 31 g ai/ha): 20%
pest or weed control at 125 g/ha [5]: 80%
pest or weed control at 250 g/ha [6]: 0%
pest or weed control at 250 g/ha [7]: 0%
plant injury at 250 g/ha (rice (Oryza sativa)): 0%
pest or weed control at 250 g/ha [8]: 0%
pest or weed control at 31 g/ha ([9]; 31 g ai/ha): 0%
pest or weed control at 125 g/ha [9]: 10%
pest or weed control at 31 g/ha ([10]; 31 g ai/ha): 0%
pest or weed control at 125 g/ha [10]: 60%
Plant response rating (0 to 100 scale), Corn (corn (Zea mays); [22]): 0
plant injury at 125 g/ha (corn (Zea mays); [16]): 0%
Plant response rating (0 to 100 scale), Galium [11, 22]: 60
pest or weed control at 125 g/ha [11, 17]: 90%
Plant response rating (0 to 100 scale), Pigweed [12, 22]: 0
pest or weed control at 125 g/ha [12, 18]: 20%
Plant response rating (0 to 100 scale), Ragweed [13, 22]: 0
pest or weed control at 125 g/ha [13, 19]: 10%
Plant response rating (0 to 100 scale), Ryegrass, It. [14, 22]: 80
pest or weed control at 125 g/ha [14, 20]: 90%
Plant response rating (0 to 100 scale), Wheat [15, 22]: 0
plant injury at 125 g/ha [15, 21]: 0%
